# Data as given in patent publication US11466016B2, “Pharmaceutical compounds” (priority 2018, dated 2022).
# Structures can show the parent of a compound that is named as a salt.
# Target: SHP2 (Homo sapiens (Human), UniProt Q06124)
# Assay: SHP2 Biochemical Assay (DiFMUP conversion, pIRS1 activating peptide)
# Settings: not given
# SHP2, sequence (Q06124 whole entry): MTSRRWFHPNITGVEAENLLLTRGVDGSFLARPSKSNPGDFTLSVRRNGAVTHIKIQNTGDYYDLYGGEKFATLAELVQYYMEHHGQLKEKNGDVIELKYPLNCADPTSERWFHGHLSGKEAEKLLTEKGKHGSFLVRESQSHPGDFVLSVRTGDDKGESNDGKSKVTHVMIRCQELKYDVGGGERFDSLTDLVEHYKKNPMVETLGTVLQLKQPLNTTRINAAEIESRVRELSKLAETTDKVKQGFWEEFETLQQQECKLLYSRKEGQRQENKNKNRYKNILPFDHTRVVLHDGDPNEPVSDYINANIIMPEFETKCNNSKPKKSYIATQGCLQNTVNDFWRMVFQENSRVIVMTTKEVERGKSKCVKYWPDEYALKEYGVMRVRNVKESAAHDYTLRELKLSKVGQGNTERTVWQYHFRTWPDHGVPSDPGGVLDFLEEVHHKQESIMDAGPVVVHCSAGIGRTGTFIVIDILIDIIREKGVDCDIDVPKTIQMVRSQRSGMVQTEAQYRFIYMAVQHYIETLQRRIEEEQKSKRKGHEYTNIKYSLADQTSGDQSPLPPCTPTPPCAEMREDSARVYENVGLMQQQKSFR
row,Structure (SMILES),IC50 [µM]
1,"Cc1nc2ccc(-c3n[nH]c4nc(N5[C@@H]6CC[C@H]5C[C@@H](N)C6)c(CO)nc34)c(Cl)c2s1 [Example 128, {6-[endo-3-amino-8-azabicyclo[3.2.1]octan-8-yl]-3-(7-chloro-2-methyl-1,3-benzothiazol-6-yl)-1H-pyrazolo[3,4-b]pyrazin-5-yl}methanol]",0.0073
2,"CN(C)c1cnc2ccc(-c3n[nH]c4nc(N5[C@@H]6CC[C@H]5[C@@H](F)[C@@H](N)C6)c(CO)nc34)c(Cl)c2n1 [Example 130, {6-[(1S,2S,3S,5R)-3-amino-2-fluoro-8-azabicyclo[3.2.1]octan-8-yl]-3-[5-chloro-3-(dimethylamino)quinoxalin-6-yl]-1H-pyrazolo[3,4-b]pyrazin-5-yl}methanol]",0.0095
3,"CN(C)c1cnc2ccc(-c3n[nH]c4nc(N5[C@@H]6CC[C@H]5C[C@@](C)(N)C6)c(CO)nc34)c(Cl)c2n1 [Example 131, {6-[endo-3-amino-3-methyl-8-azabicyclo[3.2.1]octan-8-yl]-3-[5-chloro-3-(dimethylamino)quinoxalin-6-yl]-1H-pyrazolo[3,4-b]pyrazin-5-yl}methanol]",0.0088

# Same assay, conditions: DiFMUP substrate, 0.25 μM pIRS1 peptide, 30 min pre-incubation; average where more than one data point; read-out: SHP2 (IC50)
row,Structure (SMILES),IC50 [µM]
1,"CCn1nc2ccc(-c3n[nH]c4nc(N5[C@H]6CC[C@@H]5[C@@H](F)[C@@H](N)C6)c(CO)nc34)c(Cl)c2c1C#N [Example 126, 5-{6-[(1R,2S,3S,5S)-3-amino-2-fluoro-8-azabicyclo[3.2.1]octan-8-yl]-5-(hydroxymethyl)-1H-pyrazolo[3,4-b]pyrazin-3-yl}-4-chloro-2-ethyl-2H-indazole-3-carbonitrile]",0.0097
2,"CCn1nc2ccc(-c3n[nH]c4nc(N5[C@H]6CC[C@@H]5[C@@H](F)[C@@H](N)C6)c(C)nc34)c(Cl)c2c1C#N [Example 127, 5-{6-[(1R,2S,3S,5S)-3-amino-2-fluoro-8-azabicyclo[3.2.1]octan-8-yl]-5-methyl-1H-pyrazolo[3,4-b]pyrazin-3-yl}-4-chloro-2-ethyl-2H-indazole-3-carbonitrile, hydrochloride salt]",0.014
3,"Cn1nc2ccc(-c3n[nH]c4nc(N5[C@H]6CC[C@@H]5[C@@H](F)[C@@H](N)C6)c(CO)nc34)c(Cl)c2c1C#N [Example 129, 5-{6-[(1R,2S,3S,5S)-3-amino-2-fluoro-8-azabicyclo[3.2.1]octan-8-yl]-5-(hydroxymethyl)-1H-pyrazolo[3,4-b]pyrazin-3-yl}-4-chloro-2-methyl-2H-indazole-3-carbonitrile]",0.005
4,"Cc1nc2c(-c3ccc4nc(CO)sc4c3Cl)n[nH]c2nc1N1[C@H]2CC[C@@H]1[C@@H](F)[C@@H](N)C2 [Example 132, (6-{6-[(1R,2S,3S,5S)-3-amino-2-fluoro-8-azabicyclo[3.2.1]octan-8-yl]-5-methyl-1H-pyrazolo[3,4-b]pyrazin-3-yl}-7-chloro-1,3-benzothiazol-2-yl)methanol, hydrochloride]",0.011
5,"CN(C)c1cnc2ccc(-c3n[nH]c4nc(N5[C@@H]6CC[C@H]5C[C@@H](N)C6)c(CO)nc34)c(Cl)c2n1 [Example 133, {6-[endo-3-amino-8-azabicyclo[3.2.1]octan-8-yl]-3-[5-chloro-3-(dimethylamino)quinoxalin-6-yl]-1H-pyrazolo[3,4-b]pyrazin-5-yl}methanol]",0.006
6,"COc1cnc2ccc(-c3n[nH]c4nc(N5[C@@H]6CC[C@H]5C[C@@](C)(N)C6)c(CO)nc34)c(Cl)c2n1 [Example 134, {6-[endo-3-amino-3-methyl-8-azabicyclo[3.2.1]octan-8-yl]-3-(5-chloro-3-methoxyquinoxalin-6-yl)-1H-pyrazolo[3,4-b]pyrazin-5-yl}methanol]",0.01
7,"COc1cnc2ccc(-c3n[nH]c4nc(N5[C@@H]6CC[C@H]5C[C@@H](N)C6)c(C)nc34)c(Cl)c2n1 [Example 135, endo-8-[3-(5-chloro-3-methoxyquinoxalin-6-yl)-5-methyl-1H-pyrazolo[3,4-b]pyrazin-6-yl]-8-azabicyclo[3.2.1]octan-3-amine]",0.016
8,"Cc1nc2c(-c3ccc4ncc(N(C)C)nc4c3Cl)n[nH]c2nc1N1[C@@H]2CC[C@H]1C[C@@H](N)C2 [Example 136, 7-{6-[endo-3-amino-8-azabicyclo[3.2.1]octan-8-yl]-5-methyl-1H-pyrazolo[3,4-b]pyrazin-3-yl}-8-chloro-N,N-dimethylquinoxalin-2-amine]",0.009
9,"Cc1nc2c(-c3ccc4ncc(N(C)C)nc4c3Cl)n[nH]c2nc1N1C2CCC1CNC2 [Example 137, 8-Chloro-7-(6-{3,8-diazabicyclo[3.2.1]octan-8-yl}-5-methyl-1H-pyrazolo[3,4-b]pyrazin-3-yl)-N,N-dimethylquinoxalin-2-amine]",0.021
10,"CCOc1cnc2ccc(-c3n[nH]c4nc(N5[C@H]6CC[C@@H]5[C@@H](F)[C@@H](N)C6)c(CO)nc34)c(Cl)c2n1 [Example 138, {6-[(1R,2S,3S,5S)-3-amino-2-fluoro-8-azabicyclo[3.2.1]octan-8-yl]-3-(5-chloro-3-ethoxyquinoxalin-6-yl)-1H-pyrazolo[3,4-b]pyrazin-5-yl}methanol]",0.013
11,"CCOc1cnc2ccc(-c3n[nH]c4nc(N5[C@H]6CC[C@@H]5[C@@H](F)[C@@H](N)C6)c(C)nc34)c(Cl)c2n1 [Example 139, (1R,2S,3S,5S)-8-[3-(5-chloro-3-ethoxyquinoxalin-6-yl)-5-methyl-1H-pyrazolo[3,4-b]pyrazin-6-yl]-2-fluoro-8-azabicyclo[3.2.1]octan-3-amine]",0.022
12,"Cc1nc2ccc(-c3n[nH]c4nc(N5[C@@H]6CC[C@H]5[C@@H](F)[C@@H](N)C6)c(CO)nc34)c(Cl)c2s1 [Example 140, {6-[(1S,2S,3S,5R)-3-amino-2-fluoro-8-azabicyclo[3.2.1]octan-8-yl]-3-(7-chloro-2-methyl-1,3-benzothiazol-6-yl)-1H-pyrazolo[3,4-b]pyrazin-5-yl}methanol]",0.0077
13,"Cc1c(-c2n[nH]c3nc(N4[C@@H]5CC[C@H]4[C@@H](F)[C@@H](N)C5)c(CO)nc23)ccc2nn(C)c(Cl)c12 [Example 141, {6-[(1S,2S,3S,5R)-3-amino-2-fluoro-8-azabicyclo[3.2.1]octan-8-yl]-3-(3-chloro-2,4-dimethyl-2H-indazol-5-yl)-1H-pyrazolo[3,4-b]pyrazin-5-yl}methanol]",0.013
14,"Cc1c(-c2n[nH]c3nc(N4[C@@H]5CC[C@H]4C[C@@H](N)C5)c(CO)nc23)ccc2nn(C)c(Cl)c12 [Example 142, {6-[endo-3-amino-8-azabicyclo[3.2.1]octan-8-yl]-3-(3-chloro-2,4-dimethyl-2H-indazol-5-yl)-1H-pyrazolo[3,4-b]pyrazin-5-yl}methanol]",0.013
15,"COCc1nc2ccc(-c3n[nH]c4nc(N5[C@H]6CC[C@@H]5[C@@H](F)[C@@H](N)C6)c(CO)nc34)c(Cl)c2s1 [Example 143, {6-[(1R,2S,3S,5S)-3-amino-2-fluoro-8-azabicyclo[3.2.1]octan-8-yl]-3-[7-chloro-2-(methoxymethyl)-1,3-benzothiazol-6-yl]-1H-pyrazolo[3,4-b]pyrazin-5-yl}methanol]",0.0061
16,"CC(C)Oc1cnc2ccc(-c3n[nH]c4nc(N5[C@H]6CC[C@@H]5[C@@H](F)[C@@H](N)C6)c(CO)nc34)c(Cl)c2n1 [Example 144, {6-[(1R,2S,3S,5S)-3-amino-2-fluoro-8-azabicyclo[3.2.1]octan-8-yl]-3-[5-chloro-3-(propan-2-yloxy)quinoxalin-6-yl]-1H-pyrazolo[3,4-b]pyrazin-5-yl}methanol]",0.028
17,"Cc1nc2c(-c3ccc4nn(C(C)C)c(C#N)c4c3Cl)n[nH]c2nc1N1[C@H]2CC[C@@H]1[C@@H](F)[C@@H](N)C2 [Example 145, 5-{6-[(1R,2S,3S,5S)-3-amino-2-fluoro-8-azabicyclo[3.2.1]octan-8-yl]-5-methyl-1H-pyrazolo[3,4-b]pyrazin-3-yl}-4-chloro-2-(propan-2-yl)-2H-indazole-3-carbonitrile, hydrochloride]",0.036
18,"N[C@H]1C[C@@H]2CC[C@H]([C@H]1F)N2c1nc2[nH]nc(-c3ccc4ncc(N5CCOCC5)nc4c3Cl)c2nc1CO [Example 147, {6-[(1R,2S,3S,5S)-3-amino-2-fluoro-8-azabicyclo[3.2.1]octan-8-yl]-3-[5-chloro-3-(morpholin-4-yl)quinoxalin-6-yl] 1H-pyrazolo[3,4-b]pyrazin-5-yl}methanol]",0.014
19,"Cc1nc2c(-c3ccc4ncc(N5CCOCC5)nc4c3Cl)n[nH]c2nc1N1[C@H]2CC[C@@H]1[C@@H](F)[C@@H](N)C2 [Example 148, (1R,2S,3S,5S)-8-{3-[5-chloro-3-(morpholin-4-yl)quinoxalin-6-yl] 5-methyl-1H-pyrazolo[3,4-b]pyrazin-6-yl}-2-fluoro-8-azabicyclo[3.2.1]octan-3-amine]",0.025
20,"CC(C)n1nc2ccc(-c3n[nH]c4nc(N5[C@H]6CC[C@@H]5[C@@H](F)[C@@H](N)C6)c(CO)nc34)c(Cl)c2c1C#N [Example 149, 5-{6-[(1R,2S,3S,5S)-3-amino-2-fluoro-8-azabicyclo[3.2.1]octan-8-yl]-5-(hydroxymethyl)-1H-pyrazolo[3,4-b]pyrazin-3-yl}-4-chloro-2-(propan-2-yl)-2H-indazole-3-carbonitrile]",0.014
21,"N[C@H]1C[C@@H]2CC[C@H]([C@H]1F)N2c1nc2[nH]nc(-c3ccc4ncc(N5CCC5)nc4c3Cl)c2nc1CO [Example 150, {6-[(1R,2S,3S,5S)-3-amino-2-fluoro-8-azabicyclo[3.2.1]octan-8-yl]-3-[3-(azetidin-1-yl)-5-chloroquinoxalin-6-yl]-1H-pyrazolo[3,4-b]pyrazin-5-yl}methanol]",0.015
